One block for each compound: values may come before it. Active and inactive are the calls of the source. Rule as the data show it, for most assays here: active = EC50 of 10 µM or less and inactive = more.
What was measured:
[1] = biological target: Sphingosine 1-phosphate receptor 1 (Homo sapiens, UniProt P21453); test: Fluorescence-based counterscreen assay for S1P4 agonists: Cell-based dose response high throughput screening assay to identify agonists of the Sphingosine 1-Phosphate Receptor 1 (S1P1). [Related pubchem assays (depositor defined):AID1509, AID1523, AID1801, AID463107, AID463118, AID463119, AID463122, AID463123, AID463129, AID463225, AID504400, AID504460]; format: functional
[2] = biological target: Sphingosine 1-phosphate receptor 4 (Homo sapiens, UniProt O95977); test: Fluorescence dose response cell-based high throughput screening assay for agonists of the Sphingosine 1-Phosphate Receptor 4 (S1P4). [Related pubchem assays: 1509 (Primary screen.), 1523 (Confirmation screen in triplicates.)]; format: functional
[3] = biological target: T1, E3 ubiquitin-protein ligase XIAP (Homo sapiens, UniProt P98170); test: Counter Screen using XIAP-Bir3 for Chemical Antagonists of Bir1/2 domains of IAP-family anti-apoptotic proteins. [Related pubchem assays (depositor defined):AID1018, AID1449, AID1514, AID1638, AID1749, AID1750, AID488957, AID488963]
[4] = biological target: T1, E3 ubiquitin-protein ligase XIAP; test: small molecules displacing peptide from XIAP – biochemical, IAP family, fluorescence polarization (AID 1018); format: functional
[5] = biological target: Peroxisome proliferator-activated receptor gamma/Nuclear receptor coactivator 1 (Homo sapiens, UniProt P37231); test: (§1) TR-FRET dose response biochemical High Throughput Screening assay for agonists of the steroid receptor coactivator 1 (SRC-1) recruitment by the peroxisome proliferator-activated receptor gamma (PPAR gamma): non-selective agonists. [Related pubchem assays (depositor defined):AID1300, AID1808, AID504735, AID631]; format: protein assay
[6] = biological target: Peroxisome proliferator-activated receptor gamma/Nuclear receptor coactivator 3 (Homo sapiens, UniProt P37231); test: as §1, with “3 (SRC-3)” for “1 (SRC-1)”, “assays: 1301 (Confirmation screen.), 1048 (Primary screen.)]” for “assays (depositor defined):AID1300, AID1808, AID504735, AID631]”; format: functional
[7] = biological target: Peroxisome proliferator-activated receptor gamma/Nuclear receptor coactivator 2 (Homo sapiens, UniProt P37231); test: TR-FRET dose response biochemical High Throughput Screening assay for agonists of the steroid receptor coactivator 2 (SRC-2) recruitment by the peroxisome proliferator-activated receptor gamma (PPAR gamma): non-selective agonists. [Related pubchem assays: 1297, 1032 ]; format: functional
[8] = biological target: FAD-linked sulfhydryl oxidase ALR (Homo sapiens, UniProt P55789); test: ALR-catalysed DTT oxidation blockers – biochemical, H2O2 detection, luminescence, cherry-pick, dose response (AID 493248)
FAD-linked sulfhydryl oxidase ALR, sequence (P55789 whole entry): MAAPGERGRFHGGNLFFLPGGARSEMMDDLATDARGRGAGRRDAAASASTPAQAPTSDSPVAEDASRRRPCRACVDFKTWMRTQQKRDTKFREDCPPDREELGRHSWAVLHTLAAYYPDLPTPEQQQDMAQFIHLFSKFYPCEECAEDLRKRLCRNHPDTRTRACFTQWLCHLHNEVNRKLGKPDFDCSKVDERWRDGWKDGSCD

T1 sequence (P98170 whole entry): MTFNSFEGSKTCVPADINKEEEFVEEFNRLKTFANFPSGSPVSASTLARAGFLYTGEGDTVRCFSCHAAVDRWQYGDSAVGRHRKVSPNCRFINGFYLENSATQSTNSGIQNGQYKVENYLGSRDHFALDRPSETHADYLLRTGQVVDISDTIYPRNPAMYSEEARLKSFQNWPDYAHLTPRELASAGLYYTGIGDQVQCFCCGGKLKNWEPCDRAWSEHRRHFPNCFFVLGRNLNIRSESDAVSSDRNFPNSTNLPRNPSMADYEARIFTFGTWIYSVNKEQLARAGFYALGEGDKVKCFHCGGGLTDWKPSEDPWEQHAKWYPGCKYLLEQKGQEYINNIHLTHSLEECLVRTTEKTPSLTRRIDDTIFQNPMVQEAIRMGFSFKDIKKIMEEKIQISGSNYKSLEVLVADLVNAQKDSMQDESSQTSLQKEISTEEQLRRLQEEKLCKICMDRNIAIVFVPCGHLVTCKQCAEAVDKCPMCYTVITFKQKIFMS
Peroxisome proliferator-activated receptor gamma/Nuclear receptor coactivator 1, sequence (P37231 whole entry): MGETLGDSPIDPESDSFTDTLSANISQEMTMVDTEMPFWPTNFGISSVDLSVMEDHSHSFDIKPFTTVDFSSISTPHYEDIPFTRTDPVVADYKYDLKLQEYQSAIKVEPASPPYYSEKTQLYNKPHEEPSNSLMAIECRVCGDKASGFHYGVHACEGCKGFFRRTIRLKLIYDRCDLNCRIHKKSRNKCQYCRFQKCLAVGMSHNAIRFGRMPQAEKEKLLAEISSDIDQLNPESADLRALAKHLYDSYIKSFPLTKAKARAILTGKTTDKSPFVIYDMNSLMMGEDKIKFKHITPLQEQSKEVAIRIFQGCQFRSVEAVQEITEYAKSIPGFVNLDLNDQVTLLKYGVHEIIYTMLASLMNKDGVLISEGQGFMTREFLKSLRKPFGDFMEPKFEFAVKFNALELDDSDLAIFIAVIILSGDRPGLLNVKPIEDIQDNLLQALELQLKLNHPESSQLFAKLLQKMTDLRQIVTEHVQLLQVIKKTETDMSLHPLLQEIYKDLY
Peroxisome proliferator-activated receptor gamma/Nuclear receptor coactivator 1, sequence (Q15788 whole entry, further chain): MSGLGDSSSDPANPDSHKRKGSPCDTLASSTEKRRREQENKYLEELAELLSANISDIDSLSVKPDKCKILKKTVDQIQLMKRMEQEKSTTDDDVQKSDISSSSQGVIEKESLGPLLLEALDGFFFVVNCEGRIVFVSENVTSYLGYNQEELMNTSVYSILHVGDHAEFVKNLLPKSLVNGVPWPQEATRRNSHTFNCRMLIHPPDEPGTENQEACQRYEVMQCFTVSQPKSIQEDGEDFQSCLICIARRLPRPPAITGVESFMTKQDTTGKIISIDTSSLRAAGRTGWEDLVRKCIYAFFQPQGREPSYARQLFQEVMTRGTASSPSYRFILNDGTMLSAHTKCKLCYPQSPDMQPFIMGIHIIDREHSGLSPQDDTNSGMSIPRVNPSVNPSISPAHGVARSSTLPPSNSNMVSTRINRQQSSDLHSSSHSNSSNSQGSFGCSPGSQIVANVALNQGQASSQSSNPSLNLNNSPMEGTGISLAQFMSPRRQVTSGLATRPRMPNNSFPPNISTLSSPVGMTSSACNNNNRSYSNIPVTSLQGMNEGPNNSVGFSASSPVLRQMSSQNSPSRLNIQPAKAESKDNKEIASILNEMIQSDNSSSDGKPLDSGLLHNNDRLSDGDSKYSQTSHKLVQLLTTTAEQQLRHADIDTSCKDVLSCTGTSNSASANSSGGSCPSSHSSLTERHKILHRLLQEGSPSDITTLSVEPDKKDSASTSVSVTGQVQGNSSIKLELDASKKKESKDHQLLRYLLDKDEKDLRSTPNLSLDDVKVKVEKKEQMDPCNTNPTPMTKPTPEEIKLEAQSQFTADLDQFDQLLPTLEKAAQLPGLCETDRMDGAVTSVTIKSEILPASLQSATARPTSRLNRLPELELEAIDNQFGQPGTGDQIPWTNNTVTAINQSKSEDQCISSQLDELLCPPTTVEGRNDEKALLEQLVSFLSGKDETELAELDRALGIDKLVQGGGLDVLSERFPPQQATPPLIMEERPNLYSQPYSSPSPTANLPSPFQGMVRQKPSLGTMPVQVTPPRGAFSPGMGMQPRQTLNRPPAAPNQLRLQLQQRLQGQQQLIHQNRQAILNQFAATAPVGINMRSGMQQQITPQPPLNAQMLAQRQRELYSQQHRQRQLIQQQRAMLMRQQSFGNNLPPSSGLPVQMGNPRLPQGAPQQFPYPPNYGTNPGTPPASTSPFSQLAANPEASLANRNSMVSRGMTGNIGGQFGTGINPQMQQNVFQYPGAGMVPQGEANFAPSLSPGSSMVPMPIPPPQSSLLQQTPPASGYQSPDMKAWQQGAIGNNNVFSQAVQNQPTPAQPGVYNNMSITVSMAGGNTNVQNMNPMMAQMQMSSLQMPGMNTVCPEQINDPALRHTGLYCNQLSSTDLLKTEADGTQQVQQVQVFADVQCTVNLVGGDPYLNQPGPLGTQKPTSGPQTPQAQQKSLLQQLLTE
Peroxisome proliferator-activated receptor gamma/Nuclear receptor coactivator 3, sequence (P37231 whole entry): as the sequence (P37231 whole entry) above
Peroxisome proliferator-activated receptor gamma/Nuclear receptor coactivator 3, sequence (Q9Y6Q9 whole entry, further chain): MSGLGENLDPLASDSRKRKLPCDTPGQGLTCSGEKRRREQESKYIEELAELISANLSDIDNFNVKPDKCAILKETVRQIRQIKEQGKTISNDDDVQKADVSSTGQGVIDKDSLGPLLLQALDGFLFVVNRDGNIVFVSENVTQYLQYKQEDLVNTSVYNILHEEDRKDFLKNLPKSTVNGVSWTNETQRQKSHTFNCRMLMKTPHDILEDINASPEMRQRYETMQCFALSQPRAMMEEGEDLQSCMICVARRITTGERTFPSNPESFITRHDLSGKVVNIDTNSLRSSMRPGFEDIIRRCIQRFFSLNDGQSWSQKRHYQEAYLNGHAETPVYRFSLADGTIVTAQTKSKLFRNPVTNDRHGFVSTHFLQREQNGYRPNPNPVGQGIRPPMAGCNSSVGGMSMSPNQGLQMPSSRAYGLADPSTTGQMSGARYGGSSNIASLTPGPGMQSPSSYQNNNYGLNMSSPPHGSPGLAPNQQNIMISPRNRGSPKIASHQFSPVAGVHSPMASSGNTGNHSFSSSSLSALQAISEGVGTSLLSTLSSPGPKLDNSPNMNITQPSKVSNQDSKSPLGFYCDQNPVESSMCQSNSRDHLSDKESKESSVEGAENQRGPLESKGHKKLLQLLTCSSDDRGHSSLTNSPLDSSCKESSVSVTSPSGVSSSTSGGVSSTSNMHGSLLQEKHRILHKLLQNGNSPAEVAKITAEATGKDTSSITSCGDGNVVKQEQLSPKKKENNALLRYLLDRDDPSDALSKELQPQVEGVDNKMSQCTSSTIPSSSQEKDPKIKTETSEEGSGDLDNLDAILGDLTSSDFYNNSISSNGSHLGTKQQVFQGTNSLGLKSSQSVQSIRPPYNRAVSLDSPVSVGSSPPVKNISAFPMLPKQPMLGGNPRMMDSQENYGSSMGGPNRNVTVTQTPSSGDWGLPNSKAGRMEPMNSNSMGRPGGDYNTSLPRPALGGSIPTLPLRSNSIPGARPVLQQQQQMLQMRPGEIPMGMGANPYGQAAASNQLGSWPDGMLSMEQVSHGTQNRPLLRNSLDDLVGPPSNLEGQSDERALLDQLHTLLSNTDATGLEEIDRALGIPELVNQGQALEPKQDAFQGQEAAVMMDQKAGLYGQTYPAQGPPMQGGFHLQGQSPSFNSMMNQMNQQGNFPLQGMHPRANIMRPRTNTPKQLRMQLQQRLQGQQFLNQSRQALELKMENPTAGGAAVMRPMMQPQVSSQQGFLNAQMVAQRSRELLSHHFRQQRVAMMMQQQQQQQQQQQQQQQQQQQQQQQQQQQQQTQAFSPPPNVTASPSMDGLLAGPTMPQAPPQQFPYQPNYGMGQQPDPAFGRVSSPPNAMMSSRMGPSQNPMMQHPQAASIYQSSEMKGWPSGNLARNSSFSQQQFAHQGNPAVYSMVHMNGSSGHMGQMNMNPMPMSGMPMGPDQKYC
Sphingosine 1-phosphate receptor 1, sequence (P21453 whole entry): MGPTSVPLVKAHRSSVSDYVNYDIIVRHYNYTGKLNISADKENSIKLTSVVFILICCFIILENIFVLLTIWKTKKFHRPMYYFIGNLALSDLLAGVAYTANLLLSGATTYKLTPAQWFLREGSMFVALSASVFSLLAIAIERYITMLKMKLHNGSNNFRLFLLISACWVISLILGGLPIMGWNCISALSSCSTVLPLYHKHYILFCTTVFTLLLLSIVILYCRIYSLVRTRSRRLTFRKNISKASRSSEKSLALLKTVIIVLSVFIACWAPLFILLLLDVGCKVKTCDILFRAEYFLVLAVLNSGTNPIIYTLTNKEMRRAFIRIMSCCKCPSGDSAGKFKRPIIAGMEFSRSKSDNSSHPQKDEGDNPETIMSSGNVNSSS

SMILES: CCNC(=O)NC(=O)C(C)OC(=O)c1c(C)nn(Cc2ccccc2)c1Cl (stereo not drawn)
- EC50 [1]: > 49.8 µM (inactive)
- EC50 [2]: 49.8 µM (not active)

- IC50 [3]: > 100 µM (inactive)
- IC50 [4]: > 100 µM (not active)
SMILES: CCOc1ccc(NC(=S)NCCCN2CCN(C3CCCCC3)CC2)cc1

- EC50 [5]: > 79.4 µM (inactive)
- EC50 [6]: > 79.4 µM (not active)
- EC50 [7]: > 79.4 µM (not active)
- AC50 [8]: < 0.014 µM (active)
SMILES: Cc1c(Cl)c(-c2nnc(S)n2-c2ccccc2)nn1C

Source: ChEMBL document CHEMBL1201862, “PubChem BioAssay data set” (2004)
